# Measured values taken from PubChem BioAssay AID1259407 (Chemical Carcinogenesis Research Information System (CCRIS), 2018).
# Activity calls are given as the source filed them. No rule for the calls is given here. Where a SMILES comes first, the peptide text is derived from it. [ ]: non-standard residue; d: D form. ξ: configuration not given here. Trp(1-OMe) = COn1cc(C[C@H](N)C(=O)O)c2ccccc21; Asu = N[C@@H](CCCCCC(=O)O)C(=O)O; Ile(3ξ) = CCC(C)[C@H](N)C(=O)O; dPip = O=C(O)[C@H]1CCCCN1
# Test system: CCRIS mutagenicity, Ames/micronucleus/aberration tests
# Assay: CCRIS mutagenicity studies
# [1] = Test System: AMES SALMONELLA TYPHIMURIUM, Strain/Indicator: TA98, Metabolic Activation: NONE, Method: PREINCUBATION
# [2] = Test System: AMES SALMONELLA TYPHIMURIUM, Strain/Indicator: TA100, Metabolic Activation: NONE, Method: PREINCUBATION
# [3] = Test System: AMES SALMONELLA TYPHIMURIUM, Strain/Indicator: TA102, Metabolic Activation: NONE, Method: PREINCUBATION
# [4] = Test System: AMES SALMONELLA TYPHIMURIUM, Strain/Indicator: TA1535, Metabolic Activation: NONE, Method: PREINCUBATION
# [5] = Test System: AMES SALMONELLA TYPHIMURIUM, Strain/Indicator: TA1537, Metabolic Activation: NONE, Method: PREINCUBATION
# [6] = Test System: AMES SALMONELLA TYPHIMURIUM, Strain/Indicator: TA100, Metabolic Activation: RAT, LIVER, S-9, AROCLOR 1254 (10%), Method: PREINCUBATION
# [7] = Test System: AMES SALMONELLA TYPHIMURIUM, Strain/Indicator: TA1535, Metabolic Activation: HAMSTER, LIVER, S-9, AROCLOR 1254 (10%), Method: PREINCUBATION
# [8] = Test System: AMES SALMONELLA TYPHIMURIUM, Strain/Indicator: TA1535, Metabolic Activation: RAT, LIVER, S-9, AROCLOR 1254 (10%), Method: PREINCUBATION
# [9] = Test System: AMES SALMONELLA TYPHIMURIUM, Strain/Indicator: TA98, Metabolic Activation: NONE, Method: STANDARD PLATE
# [10] = Test System: AMES SALMONELLA TYPHIMURIUM, Strain/Indicator: TA98, Metabolic Activation: RAT, LIVER, S-9, AROCLOR 1254, Method: STANDARD PLATE
# [11] = Test System: AMES SALMONELLA TYPHIMURIUM, Strain/Indicator: TA100, Metabolic Activation: NONE, Method: STANDARD PLATE
# [12] = Test System: AMES SALMONELLA TYPHIMURIUM, Strain/Indicator: TA100, Metabolic Activation: RAT, LIVER, S-9, AROCLOR 1254, Method: STANDARD PLATE
structure (smiles),measurement,setting,value
CCC(C)[C@@H]1NC(=O)[C@H](Cc2cn(OC)c3ccccc23)NC(=O)[C@H](CCCCCC(=O)OC)NC(=O)[C@H]2CCCCN2C1=O (stereo not given in full) (cyclo([Asu](OMe)[Trp(1-OMe)][Ile(3ξ)][dPip])),mutagenic call,"End Point: IN VITRO CHROMOSOMAL ABERRATIONS, Test System: CHO CELLS, Metabolic Activation: NONE",active; positive (structural changes)
same,mutagenic call,"End Point: IN VITRO CHROMOSOMAL ABERRATIONS, Test System: CHO CELLS, Metabolic Activation: RAT, LIVER, S-9, AROCLOR 1254",active; positive (structural changes)
same,mutagenic call,"End Point: IN VIVO MICRONUCLEUS, Test System: BONE MARROW POLYCHROMATIC ERYTHROCYTES, Species: MOUSE, Strain/Sex: ICR/MALE, Route: IP INJECTION",active; positive
same,mutagenic call,[1],inactive; negative
same,mutagenic call,"Test System: AMES SALMONELLA TYPHIMURIUM, Strain/Indicator: TA98, Metabolic Activation: RAT, LIVER, S-9, AROCLOR 1254, Method: PREINCUBATION",inactive; negative
same,mutagenic call,[2],inactive; negative
same,mutagenic call,"Test System: AMES SALMONELLA TYPHIMURIUM, Strain/Indicator: TA100, Metabolic Activation: RAT, LIVER, S-9, AROCLOR 1254, Method: PREINCUBATION",inactive; negative
same,mutagenic call,[3],inactive; negative
same,mutagenic call,"Test System: AMES SALMONELLA TYPHIMURIUM, Strain/Indicator: TA102, Metabolic Activation: RAT, LIVER, S-9, AROCLOR 1254, Method: PREINCUBATION",inactive; negative
same,mutagenic call,[4],inactive; negative
same,mutagenic call,"Test System: AMES SALMONELLA TYPHIMURIUM, Strain/Indicator: TA1535, Metabolic Activation: RAT, LIVER, S-9, AROCLOR 1254, Method: PREINCUBATION",inactive; negative
same,mutagenic call,[5],inactive; negative
same,mutagenic call,"Test System: AMES SALMONELLA TYPHIMURIUM, Strain/Indicator: TA1537, Metabolic Activation: RAT, LIVER, S-9, AROCLOR 1254, Method: PREINCUBATION",inactive; negative
O=C(Cl)C(Cl)(Cl)Cl,mutagenic call,"Test System: AMES SALMONELLA TYPHIMURIUM, Strain/Indicator: TA100, Metabolic Activation: NONE, Method: BAG VAPORIZATION",active; positive
same,mutagenic call,"Test System: AMES SALMONELLA TYPHIMURIUM, Strain/Indicator: TA100, Metabolic Activation: RAT, LIVER, S-9, AROCLOR 1254, Method: BAG VAPORIZATION",active; positive
CC(=O)/C(C)=N/O,mutagenic call,"Test System: AMES SALMONELLA TYPHIMURIUM, Strain/Indicator: TA98, Metabolic Activation: HAMSTER, LIVER, S-9, AROCLOR 1254 (10%), Method: PREINCUBATION",inactive; negative
same,mutagenic call,[1],inactive; negative
same,mutagenic call,"Test System: AMES SALMONELLA TYPHIMURIUM, Strain/Indicator: TA98, Metabolic Activation: RAT, LIVER, S-9, AROCLOR 1254 (10%), Method: PREINCUBATION",inactive; negative
same,mutagenic call,"Test System: AMES SALMONELLA TYPHIMURIUM, Strain/Indicator: TA100, Metabolic Activation: HAMSTER, LIVER, S-9, AROCLOR 1254 (10%), Method: PREINCUBATION",inactive; negative
same,mutagenic call,[2],inactive; negative
same,mutagenic call,[6],inactive; negative
same,mutagenic call,[7],inactive; negative
same,mutagenic call,[4],inactive; negative
same,mutagenic call,[8],inactive; negative
same,mutagenic call,"Test System: AMES SALMONELLA TYPHIMURIUM, Strain/Indicator: TA1537, Metabolic Activation: HAMSTER, LIVER, S-9, AROCLOR 1254 (10%), Method: PREINCUBATION",inactive; negative
same,mutagenic call,[5],inactive; negative
same,mutagenic call,"Test System: AMES SALMONELLA TYPHIMURIUM, Strain/Indicator: TA1537, Metabolic Activation: RAT, LIVER, S-9, AROCLOR 1254 (10%), Method: PREINCUBATION",inactive; negative
O=C(c1ccccc1)[C@H]1O[C@H]1c1ccc(F)cc1,mutagenic call,"Test System: AMES SALMONELLA TYPHIMURIUM, Strain/Indicator: TA98, Metabolic Activation: NONE, Method: PREINCUBATION (PHOSPHATE-BUFFERED KCL OR SOLUTE-FREE WATER MEDIA)",inactive; negative
same,mutagenic call,[9],inactive; negative
same,mutagenic call,[10],inactive; negative
same,mutagenic call,"Test System: AMES SALMONELLA TYPHIMURIUM, Strain/Indicator: TA100, Metabolic Activation: NONE, Method: PREINCUBATION (PHOSPHATE-BUFFERED KCL OR SOLUTE-FREE WATER MEDIA)",inactive; negative
same,mutagenic call,[11],inactive; negative
same,mutagenic call,[12],inactive; negative
same,mutagenic call,"Test System: AMES SALMONELLA TYPHIMURIUM, Strain/Indicator: TA104, Metabolic Activation: NONE, Method: PREINCUBATION (PHOSPHATE-BUFFERED KCL OR SOLUTE-FREE WATER MEDIA)",inactive; negative
same,mutagenic call,"Test System: CHINESE HAMSTER V-79, Strain/Indicator: V-79 (HPRT)/6-THIOGUANINE, Metabolic Activation: NONE",inactive; negative
Cc1cc2nc3ccc(=[N+](C)C)cc-3sc2cc1N,mutagenic call,"Test System: AMES SALMONELLA TYPHIMURIUM, Strain/Indicator: TA97A, Metabolic Activation: NONE, Method: STANDARD PLATE",active; positive
same,mutagenic call,"Test System: AMES SALMONELLA TYPHIMURIUM, Strain/Indicator: TA97A, Metabolic Activation: RAT, LIVER, S-9, AROCLOR 1254, Method: STANDARD PLATE",active; positive
same,mutagenic call,[9],inactive; negative
same,mutagenic call,[10],active; positive
same,mutagenic call,[11],inactive; negative
same,mutagenic call,[12],active; positive
same,mutagenic call,"Test System: AMES SALMONELLA TYPHIMURIUM, Strain/Indicator: TA102, Metabolic Activation: NONE, Method: STANDARD PLATE",inactive; negative
same,mutagenic call,"Test System: AMES SALMONELLA TYPHIMURIUM, Strain/Indicator: TA102, Metabolic Activation: RAT, LIVER, S-9, AROCLOR 1254, Method: STANDARD PLATE",active; positive
CC(=O)ON(OCc1ccc([N+](=O)[O-])cc1)C(=O)c1ccccc1,mutagenic call,[11],active; positive
same,mutagenic call,"Test System: AMES SALMONELLA TYPHIMURIUM, Strain/Indicator: TA100, Metabolic Activation: RAT, S-9, AROCLOR, Method: STANDARD PLATE",active; positive
CCCCNCCCNCCCNC(=O)c1csc(-c2csc(CCNC(=O)C(NC(=O)C(C)C(O)C(C)NC(=O)C(NC(=O)c3nc(C(CC(N)=O)NCC(N)C(N)=O)nc(N)c3C)C(OC3OC(CO)C(O)C(O)C3OC3OC(CO)C(O)C(OC(N)=O)C3O)c3cnc[nH]3)C(C)O)n2)n1 (stereo not given),mutagenic call,[3],active; positive
CCCCCCOCC1CO1 (stereo not given),mutagenic call,[2],active; positive
same,mutagenic call,[6],inactive; negative
same,mutagenic call,[7],active; positive
same,mutagenic call,[4],active; positive
same,mutagenic call,[8],active; positive
CC(=O)Nc1snc2ccccc12,mutagenic call,[9],inactive; negative
same,mutagenic call,"Test System: AMES SALMONELLA TYPHIMURIUM, Strain/Indicator: TA98, Metabolic Activation: S-9, Method: STANDARD PLATE",inactive; negative
same,mutagenic call,[11],inactive; negative
same,mutagenic call,"Test System: AMES SALMONELLA TYPHIMURIUM, Strain/Indicator: TA100, Metabolic Activation: S-9, Method: STANDARD PLATE",active; positive
same,mutagenic call,"Test System: AMES SALMONELLA TYPHIMURIUM, Strain/Indicator: TA1535, Metabolic Activation: NONE, Method: STANDARD PLATE",inactive; negative
same,mutagenic call,"Test System: AMES SALMONELLA TYPHIMURIUM, Strain/Indicator: TA1535, Metabolic Activation: S-9, Method: STANDARD PLATE",inactive; negative
same,mutagenic call,"Test System: AMES SALMONELLA TYPHIMURIUM, Strain/Indicator: TA1537, Metabolic Activation: NONE, Method: STANDARD PLATE",active; positive
same,mutagenic call,"Test System: AMES SALMONELLA TYPHIMURIUM, Strain/Indicator: TA1537, Metabolic Activation: S-9, Method: STANDARD PLATE",active; positive
[N-]=[N+]=NC[C@H]1O[C@H](O)[C@@H](O)[C@@H](O)[C@@H]1O,mutagenic call,[9],inactive; negative
same,mutagenic call,[11],active; positive
CC(=O)ON(C(C)=O)c1ccc(Sc2ccccc2)cc1,mutagenic call,"Test System: AMES SALMONELLA TYPHIMURIUM, Strain/Indicator: TA98(1,8-DNP6), Metabolic Activation: NONE, Method: STANDARD PLATE",active; positive
same,mutagenic call,[9],active; positive
same,mutagenic call,[10],active; positive
Cc1ccc(N)c(Cl)c1,mutagenic call,"Test System: UDS RODENT HEPATOCYTES, Strain/Indicator: THY INCORP (NON-S-PHASE), Metabolic Activation: NONE, Method: AUTORADIOGRAPHY",active; positive
